In assay [1] the target is T1, SK3 channel (Rattus norvegicus, UniProt P70605).
T1 construct: expressed in transfected cells
Nature of the assay: Conventional manual patch clamp on HEK-rSK3 cells, SK3 channel activity. It counts as cell-based. To be noted: for inhibition at 0.001 µM: 1 nM; for inhibition at 0.05 µM: 50 nM; for inhibition at 0.5 µM: 500 nM. An excerpt: (§1) Cell Lines Used to Screen the Molecules on the Activity of SKCa Channels (Small Conductance Calcium-Activated Potassium Channel; SK1, SK2 and SK3) and IKCa Channels (Intermediate Conductance Calcium-Activated Potassium Channel, SK4)
(§2) Use was made of the HEK 293 T line, a foetal kidney line which was immortalised with the T antigen of the […] simian virus. This cell line is widely used on account of the ease with which these cells can be transfected with plasmids or other transfection vectors. Four stable lines were used for patch clamp experiments: HEK-hSK1, HEK-rSK2, HEK-rSK3 and HEK-IKCa/SK4 which respectively overexpress the SK1, SK2, SK3 and SK4 channels. The lines were obtained via stable transduction (Girault et al., Current Cancer Drug Targets, 2011, 11, 1111-25) and are those already routinely used to assay SK3 modulators (Potier et al. Br J Pharmacol. 2011 January; 162(2):464-79; Sevrain et al., Med. Chem. Commun., 2012, 3, 1471-1478; Sevrain et al., Organic & Biomolecular Chemistry, 2013 Jul. 21; 11(27):4479-87, Berthe W, Sevrain C M, Chantôme A, Bouchet A M, Gueguinou M, Fourbon Y, Potier-Cartereau M, Haelters J P, Couthon-Gourvès H, Vandier C, Jaffrès P A. ChemMedChem. 2016 Jul. 19; 11(14):1531-9). […] These lines therefore enabled us without difficulty to examine the effect of the molecules on the SK3 channel, and also the selectivity thereof by means of the patch clamp technique. The inhibitory activity of the non-toxic molecules was assayed on the activity of the SK3 channel. The selectivity of the molecules was determined by patch clamp on HEK cell models stably expressing the SK3 channel but also the SK1, SK2, SK3 or IKCa/SK4 channels.
Electrophysiology/Patch-Clamp
(§3) Patch clamp is a technique allowing measurement of the activity of ion channels by recording macroscopic (whole cell configuration) or microscopic (e.g. inside out configuration) ionic currents through the plasma membrane. For assay of the effect of the molecules on the SKCa/IKCa channels, two complementary techniques were used: conventional, manual patch clamp and automated patch clamp with the Nanion NPC-16 Patchliner Quattro (4 channels) (Potier et al., Mol Cancer Ther 2006, 5, 2946-53; Chantome et al., Exp Cell Res 2009, 315, 3620-30; Potier et al., Biochem Biophys Res Commun 2010, 397, 42-7; Girault et al., Current Cancer Drug Targets, 2011, 11, 1111-25; Sevrain et al., Med. Chem. Commun., 2012, 3, 1471-1478; Sevrain et al., Organic & Biomolecular Chemistry, 2013 Jul. 21; 11(27):4479-87; Chantome et al., Cancer Research, 2013 Aug. 1; 73(15):4852-61, Gueguinou M, Crottès D, Chantôme A, Rapetti-Mauss R, Potier-Cartereau M, Clarysse L, Girault A, Fourbon Y, Jézéquel P, Guérin-Charbonnel C, Fromont G, Martin P, Pellissier B, Schiappa R, Chamorey E, Mignen O, Uguen A, Borgese F, Vandier C, Soriani O. Oncogene. 2017 Jan. 23. doi: 10.1038/onc.2016.501, Berthe W, Sevrain C M, Chantôme A, Bouchet A M, Gueguinou M, Fourbon Y, Potier-Cartereau M, Haelters J P, Couthon-Gourvès H, Vandier C, Jaffrès P A. ChemMedChem. 2016 Jul. 19; 11(14):1531-9, Guéguinou M, Harnois T, Crottes D, Uguen A, Deliot N, Gambade A, Chantôme A, Haelters J P, Jaffrès P A, Jourdan M L, Weber G, Soriani O, Bougnoux P, Mignen O, Bourmeyster N, Constantin B, Lecomte T, Vandier C, Potier-Cartereau M. Oncotarget. 2016 Jun. 14; 7(24):36168-36184. doi: 10.18632/oncotarget.8786).
For conventional patch clamp, the micropipette is filled with an intrapipette medium—IPM (see composition below) and allows measurement of ionic currents at the same time as allowing maintaining of membrane potential (voltage clamp). The experimental device was composed of an anti-vibration table supporting an inverted microscope (Nikon, Eclipse TE 300). The Petri dish (Corning Incorporated, USA), containing the cells was placed on a plexiglass plate attached to the microscope stage. The pipette was connected to the amplifier (Axopatch 200B) as reference electrode which allowed closing of the electrical circuit. […]
Background: Patch clamp records ionic current or voltage across a cell membrane.

For assay [2], the target named is T2, SK2 channel (Rattus norvegicus, UniProt P70604).
T2 construct: expressed in transfected cells
Nature of the assay: Automated patch clamp (Nanion NPC-16 Patchliner Quattro) on HEK-rSK2 cells, SK2 channel activity. Format: cell-based. To be noted: for inhibition at 0.001 µM: 1 nM; for inhibition at 0.01 µM: 10 nM.
Excerpt: as §1, §2, §3
The technique of choice to determine molecules inhibiting the activity of ion channels is the patch-clamp technique. However, this technique which is manual is time-consuming and only gives low yields. Automation of patch-clamp brought a revolution in the study and screening of ion channels and has allowed the envisaging of assays with much faster flow rate and much higher yield. There exist several automatic patch clamp devices based on the use of chips. […]

A word on the inhibition: it is the percentage by which the read-out fell short of the control. The low end stands for little suppression, the high end for strong suppression.

Consider `c1ccc2c(c1)CCCC2Nc1ncnc2cccnc12` (stereo not shown) [Compound 7, N-(1,2,3,4-Tetrahydronaphthalen-1-yl)pyrido[3,2-d]pyrimidin-4-amine], for which the values for the inhibition at 0.001 µM in assay [1] and in assay [2] were 42.2% and 35%, respectively. The “% SK3 inhibition” value is listed as 10 nM: 56.1 ± 4.8 (N = 3) % in assay [1] (10 nM), 100 nM: 81.3 ± 1.0 (N = 3) % in assay [1] (100 nM) and 10 μM: 83.4 ± 3.2 (N = 8) % in assay [1] (10 μM). 0.01 µM produced 89.3% inhibition in assay [2]. Also, the “% SK2 inhibition” value in assay [2] (100 nM) is listed as 100 nM: 91.5 ± 1.6 (N = 9) %; in assay [2] (10 μM), 10 μM: 95.6 ± 1.2 (N = 9) %.

In the case of `c1ccc2c(c1)CCC[C@H]2Nc1ncnc2cccnc12` [Compound 18, (R)—N-(1,2,3,4-Tetrahydronaphthalen-1-yl)pyrido[3,2-d]pyrimidin-4-amine], the inhibition at 0.001 µM in assay [1] was 44.7%; in assay [2], 36.7%. Besides, the inhibition at 0.01 µM was 59.7% in assay [1] (10 nM) and 81.4% in assay [2]. Also, the figures for the inhibition at 0.1 µM in assay [1] (100 nM) and in assay [2] (100 nM) were 96% and 92.9%, respectively. Further, the inhibition at 10 µM came out at 89.9% in assay [1] (10 μM) and 97% in assay [2] (10 μM).

Take `c1cnc2c(NC3CCCCC3)ncnc2c1` [Compound 23, N-Cyclohexylpyrido[3,2-d]pyrimidin-4-amine]: the inhibition at 10 µM in assay [1] (10 μM) was 8.4%; in assay [2] (10 μM) it was 1%.

Regarding `c1ccc2c3c(ccc2c1)CCCC3Nc1ncnc2cccnc12` (stereo not shown) [Compound 29, N-(1,2,3,4-Tetrahydrophenanthren-4-yl)pyrido[3,2-d]pyrimidin-4-amine], the values for the inhibition at 10 µM in assay [1] (10 μM) and in assay [2] (10 μM) were 46% and 16.2%, respectively.

As to `Cc1nc(NC2CCCc3ccccc32)c2ncccc2n1` (stereo not shown) [Compound 30, 2-Methyl-N-(1,2,3,4-tetrahydronaphthalen-1-yl)pyrido[3,2-d]pyrimidin-4-amine], the inhibition at 0.05 µM in assay [1] was 35.5%. The same molecule displayed an inhibition at 0.5 µM in assay [1] of 52.9%. For the same molecule, the inhibition at 10 µM is 87.2% in assay [1] (10 μM) and 95% in assay [2] (10 μM).

For the molecule `Oc1nc(NC2CCCc3ccccc32)c2ncccc2n1` (stereo not shown) [Compound 34, 4-(1,2,3,4-tetrahydronaphthalen-1-ylamino)pyrido[3,2-d]pyrimidin-2-ol], in assay [1], the inhibition at 0.05 µM came to 32.9% and at 0.5 µM the inhibition was 40.4%. Testing at 0.1 µM in assay [2] (100 nM) gave an inhibition of 92.7%. In assay [2] (10 μM), the inhibition at 10 µM turned out to be 94.8%.

For the molecule `CNc1nc(NC2CCCc3ccccc32)c2ncccc2n1` (stereo not shown) [Compound 35, N^2-methyl-N^4-(1,2,3,4-tetrahydronaphthalen-1-yl)pyrido[3,2-d]pyrimidine-2,4-diamine], the inhibition at 0.1 µM in assay [2] (100 nM) turned out to be 83.7%. Further, in assay [2] (10 μM), 10 µM produced 91.4% inhibition.

As to `CCCCCCc1cnc2c(NC3CCCc4ccccc43)ncnc2c1` (stereo not shown) [Compound 40, 7-Hexyl-N-(1,2,3,4-tetrahydronaphthalen-1-yl)pyrido[3,2-d]pyrimidin-4-amine], the inhibition at 0.1 µM in assay [1] (100 nM) came out at 11.9%; in assay [2] (100 nM), 25.6%. Further, the inhibition at 10 µM in assay [1] (10 μM) was determined as 82.2%; in assay [2] (10 μM) it was 88.1%.

In assay [1], `c1ccc2c(c1)CCCN2Nc1ncnc2cccnc12` [Compound 53, N-(3,4-Dihydroquinolin-1(2H)-yl)pyrido[3,2-d]pyrimidin-4-amine] registered an inhibition at 0.001 µM of 7.4%. For the same molecule, 0.01 µM produced 42.6% inhibition in assay [1] (10 nM). Besides, the inhibition at 0.05 µM in assay [1] and in assay [2] (50 nM) was 29.2% each time. For the same molecule, the inhibition at 0.1 µM in assay [1] (100 nM) and in assay [2] (100 nM) was 41.9% in each case. Moreover, the inhibition at 0.5 µM in assay [1] was determined as 94.2%; in assay [2] (500 nM), 43.2%. In addition, the inhibition at 10 µM in assay [1] (10 μM) and in assay [2] (10 μM) was 62.2% each time.

Regarding `Cl.c1ccc2c(c1)CCCC2Nc1ncnc2cccnc12` (stereo not shown) [Compound 75, N-Tetralin-1-ylpyrido[3,2-d]pyrimidin-3-ium-4-amine chloride], the “% SK3 inhibition” value in assay [1] (10 nM) is 10 nM: 92.43 ± 0.78 (N = 2) %. Besides, the inhibition at 0.1 µM in assay [1] (100 nM) was 85.4%; in assay [2] (100 nM), 80%. Further, the inhibition at 10 µM was 88.8% in assay [1] (10 μM) and 93.3% in assay [2] (10 μM).

`O=C1CCC(Nc2ncnc3cccnc23)c2ccccc21` (stereo not shown) [Compound 152, 4-(Pyrido[3,2-d]pyrimidin-4-ylamino)tetralin-1-one]: 0.05 µM produced 24.4% inhibition in assay [1]. Moreover, in assay [1] (100 nM), the inhibition at 0.1 µM was 41.5%. Besides, in assay [1] (10 μM), testing at 10 µM gave an inhibition of 61.2%.

`Fc1ccc2c(c1)CCCC2Nc1ncnc2cccnc12` (stereo not shown) [Compound 157, N-(6-Fluorotetralin-1-yl)pyrido[3,2-d]pyrimidin-4-amine] came in with an inhibition at 0.05 µM in assay [1] of 32%. Also, the inhibition at 0.1 µM in assay [1] (100 nM) amounted to 51.1%. In assay [1] (10 μM), this molecule yielded an inhibition at 10 µM of 54%.

As for `Fc1cnc2c(N[C@H]3CCCc4ccccc43)ncnc2c1` [Compound 158, 7-Fluoro-N-[(1S)-tetralin-1-yl]pyrido[3,2-d]pyrimidin-4-amine], testing at 0.05 µM in assay [1] gave an inhibition of 35.8%. The same molecule registered an inhibition at 0.1 µM in assay [1] (100 nM) of 64.1%. Besides, at 10 µM the inhibition in assay [1] (10 μM) was 84.8%.
